The source of these data is paper PMC9677951 (Journal of medicinal chemistry, 2020).

Values joined by “and” are separate entries in the source; they are usually repeats but may differ in a detail not shown here. Equal entries are not always repeated. “Also recorded” adds a separate entry of the source. Where two headings read alike, the source gives them in different places.

Series [1] has as its system WT HIV-1 (IIIB). The note with it: read-out: EC50 WT; previously reported; ref [9]-[13]; cited from earlier work.
The test system of series [2] is HIV-1 strain RES056 (K103N+Y181C). The note with it: read-out: EC50 RES056, previously reported, ref [9]-[13], cited from earlier work.
Series [3] has as its system HIV-1 K103N. The note with it: read-out: EC50 K103N; previously reported; ref [9]-[13]; cited from earlier work.
The test system of series [4] is HIV-1 E138K. The note with it: read-out: EC50 E138K; previously reported; ref [9]-[13]; cited from earlier work.
The subject of series [5] is HIV-1 F227L+V106A. The note with it: read-out: EC50 F227L+V106A; previously reported; ref [9]-[13]; cited from earlier work.
In series [6] the test system is WT HIV-1 (IIIB). The note with it: read-out: EC50 IIIB, MT-4 cells, MTT method.
For series [7], the system named is HIV-1 strain RES056 (K103N+Y181C). The note with it: read-out: EC50 RES056, MT-4 cells, MTT method.
The subject of series [8] is WT virus and NNRTI-resistant HIV-1 strains. Nature of the series: Broad-spectrum anti-HIV-1 activity against WT and NNRTI-resistant strains. It is filed as cell-based. The note with it: Human immunodeficiency virus 1, read-out: EC50 range, broad-spectrum activity.
Series [9] relates to Kunming mice. Nature of the series: Acute toxicity study in Kunming mice. The class given is in vivo. The note with it: single oral dose 2000 mg/kg.
Series [10] has as its system WT HIV-1 (IIIB). Nature of the series: microbe, parasite or virus in culture. The note with it: Human immunodeficiency virus 1, IIIB, MT4, read-out: EC50 IIIB.
Series [11] concerns HIV-1 E138K. Nature of the series: Anti-HIV-1 activity against E138K mutant in MT-4 cells, MTT method. The note with it: Human immunodeficiency virus 1, MT4, read-out: EC50 E138K. The class given is cell-based.
Series [12] has as its system HIV-1 F227L+V106A. Nature of the series: Anti-HIV-1 activity against F227L+V106A mutant in MT-4 cells, MTT method. The note with it: Human immunodeficiency virus 1, MT4, read-out: EC50 F227L+V106A. The class given is cell-based.
The subject of series [13] is HIV-1 Y181C. Nature of the series: Anti-HIV-1 activity against Y181C mutant in MT-4 cells, MTT method. The class given is cell-based. The note with it: Human immunodeficiency virus 1, MT4, read-out: EC50 Y181C.
The test system of series [14] is HIV-1 Y188L. Nature of the series: Anti-HIV-1 activity against Y188L mutant in MT-4 cells, MTT method. It is filed as cell-based. The note with it: Human immunodeficiency virus 1, MT4, read-out: EC50 Y188L.

In the case of `Cc1cc(/C=C/C#N)cc(C)c1Nc1ccnc(Nc2ccc(C#N)cc2)n1` [RPV, rilpivirine], the EC50 is 1 ± 0.3 nM in series [1] and 11 ± 1.9 nM in series [2].

As to `Cc1cc(C#N)cc(C)c1Oc1nc(NC2CCN(Cc3ccc(S(N)(=O)=O)cc3)CC2)nc2ccsc12` [Compound K-5a2], the 50% effective concentration (EC50) in series [3] was 2.9 nM; in series [4], 2.9 nM; in series [1], 1.4 ± 0.4 nM; in series [2] (listed as 3), 30.6 nM and 31 nM; in series [5] it was 4.2 ± 1.2 nM.

With `O=C1Nc2ccc(Cl)cc2[C@@](C#CC2CC2)(C(F)(F)F)O1` [EFV, efavirenz], the EC50 amounted to 2.49 ± 0.547 nM in series [6] and 260 ± 47.6 nM in series [7].

Consider `Cc1cc(/C=C/C#N)cc(C)c1Oc1nc(Nc2ccc(C#N)c(F)c2)nc2ccsc12` [Compound 24b, (E)-4-((4-(4-(2-cyanovinyl)-2,6-dimethylphenoxy)thieno[3,2-d]pyrimidin-2-yl)amino)-2-fluorobenzonitrile], for which the EC50 in [8] is 3.6 to 21.5 nM. For the same compound, the “Acute toxicity: behaviors and body weight vs control group” value in [9] is listed as “no abnormal behaviors or significant changes of body weight”. The “Acute toxicity: mortality or poisoning symptoms” value in series [9] (following 7 days, 2000 mg/kg) is given as “no mortality or poisoning symptoms; also recorded: no acute toxicity”.

Turning to `Cc1cc(C#N)cc(C)c1Oc1nc(Nc2ccc(C#N)cc2)nc(N)c1Br` [ETR, Etravirine], the EC50 in series [3] is 2.4 ± 0.6 nM; in series [10] it was 2.55 ± 0.37 nM; in series [11] it was 9.76 ± 6.9 nM; in [12] it was 19.7 ± 7.3 nM; in series [13], 14.5 ± 8.22 nM; in series [7], 32.2 ± 12.2 nM. The EC50 in series [4] is 14 ± 2.2 nM; in series [1], 4.1 ± 0.1 nM; in series [2], 17 ± 1.8 nM; in series [14], 20.4 ± 8.64 nM; in series [5], 29 ± 7.7 nM.
